Where a SMILES comes first, the peptide text is derived from it. Bridges are numbered along the chain shown (N, C = ends). Where no end group is shown, it is not given here. [ ]: non-standard residue; d: D form. The star is where a group is joined. Ileψ(thiazoline)Cys = CC[C@H](C)[C@H](N)C1=N[C@H](C(=O)*)CS1; dOrn = NCCC[C@@H](N)C(=O)O

Consider 8 compounds from patent US8715697B2, “Genes associated with Leishmania parasite virulence” (priority 2001, dated 2014).

The subject of assay [1] is L. major GLC94 isolate promastigotes. The assay is described as follows: Evolution of the disease in BALB/c mice infected with L. major GLC94 promastigotes, lesion size. The assay is classed as in vivo. From the text:
Sensitive BALB/c mice were infected with 10^6 promastigotes from the GLC94 isolate into the plantar pad and treated or not treated with bacitracin. The treatment was halted 9 weeks after infection (the arrow indicates treatment stoppage).
The availability of zinc bacitracin, which already forms a weapon in the therapeutic arsenal, has allowed it to be tested on the evolution of infection in the BALB/c mouse with L. major. Mice were infected with promastigotes in the stationary growth phase (10^6 promastigotes per paw) of the GLC94 isolate into the plantar pad of the rear paw and treated with a pomade based on 5 mM or 25 mM of BACZn (prepared in Vaseline). Treatment with the pomade was started 48 hours after injecting the parasites, by dint of one application per day over 5 days of the week. Mice infected in the same manner and treated with Vaseline were used as the control. The lesion size was measured each week.

For assay [2], the system named is L. major parasites in the exponential growth phase. In words: Inhibition of parasite (L. major) growth in a liquid medium by PDI inhibitors. The assay is classed as cell-based, Leishmania major. The following applies: for growth of Leishmania in a liquid medium (summary statement): no concentration stated, refers to Example 4; for concentration that completely inhibited the growth of L. major in a liquid medium: counted every 24 h over 96 h, FIG. 9 and FIG. 11. Here is the method:
They are growth curves taken over 96 hours, for promastigotes of L major in the presence of 0, 1 mM, 1.5 mM or 2 mM of bacitracin.
Different concentrations of inhibitors (0 to 5 mM) were used to follow the effect of PDI inhibitors on the multiplication of parasites in vitro. Parasites that had not been treated with inhibitors (T) were selected as a control for these experiments.
With the aim of determining the effect of bacitracin (BAC), zinc bacitracin (BACZn), p-chloromercuribenzoic acid (PCMBA) and 5,5′-dithiobis(2-nitrobenzoic acid) (DTNB) on the in vitro growth of Leishmanias in a liquid medium, different concentrations of the inhibitors cited above, 0 mM, 0.05 mM, 0.1 mM, 0.2 mM, 0.5 mM, 1 mM, 1.5 mM, 2 mM, 2.5 mM and 5 mM were added to RPMI supplemented with 5% fetal calf serum and containing 2×10^6/ml of parasites in the exponential growth phase. The parasites were incubated at 26° C. and counted every 24 hours over 96 hours. The parasites were counted on Mallassez cells.
The PDI inhibitors described in paragraph (1—) were tested with the aim of evaluating their capacities to inhibit the in vitro growth of parasites. To this end, different quantities of inhibitors were added to RPMI containing 2×10^6/ml of parasites in the exponential growth phase. The parasites were incubated at 26° C. and counted every 24 hours over 96 hours. The parasites were counted on Mallassez cells.

The test system of a further assay is recombinant LmPDI. The assay is described as follows: Inhibition of reactivation of scrambled RNase A by recombinant LmPDI (thio-disulfide oxido-reductase activity). It counts as biochemical, Leishmania major. Conditions: for inhibition of rLmPDI activity: FIG. 12; for concentration at which LmPDI activity is completely inhibited: inhibitors tested at 0.01, 0.1, 0.5 and 2 mM. Here is the method: Scrambled RNase A (8 μM) was incubated in a buffer containing 4.5 mM cCMP, 1 mM glutathione GSH, 0.2 mM glutathione disulfide GSSH, 2 mM EDTA and 100 mM of Tris-HCl pH 8 in the presence of bovine serum albumin (BSA) (1.4 μM) as a negative control, bovine protein disulfide-isomerase (1.4 μM) as a positive control, or recombinant LmPDI (1.4 μM) for 30 minutes at 25° C. RNase A reactivation was determined by measuring the RNase A activity at 296 nm every 5 minutes, as described in the literature (Lyles and Gilbert, 1991).
The scrambled RNase A (8 μM) was incubated in a buffer containing 4.5 mM cCMP, 1 mM glutathione GSH, 0.2 mM glutathione disulfide GSSH, 2 mM EDTA and 100 mM Tris-HCl, pH 8, in the presence of bovine serum albumin (BSA) (1.4 μM) as a negative control, bovine protein disulfide-isomerase (1.4 μM) as a positive control, or recombinant LmPDI (1.4 μM) for 30 minutes at 25° C. RNase A reactivation was determined by measuring the RNase A activity at 296 nm every 5 minutes for 30 minutes as described in the literature (Lyles and Gilbert, 1991).
The experimental conditions for the thio-disulfide oxido-reductase activity inhibition tests for recombinant LmPDI were strictly identical to those described in the paragraph “Reactivation of RNase A in the presence of recombinant LmPDI protein”, except that the reactions were carried out in the presence of 0.01 mM, 0.1 mM, 0.5 mM and 2 mM of the following PDI inhibitors: • bacitracin; • zinc bacitracin; • p-chloromercuribenzoic acid (pCMBA); • tocinoic acid. d) Inhibition of Parasite (L. Major) Growth in a Liquid Medium
1—Evaluation of the inhibition of recombinant LmPDI. The detailed technique for analyzing the PDI activity of LmPDI was described in Example 2 and in the Materials and Methods section above. The same technique can be used to evaluate the capacity of certain PDI inhibitors which are known or still to be identified (using a molecular model of LmPDI), by adding different concentrations of potential inhibitors to the reaction volume. The results are expressed as the percentage inhibition compared with the buffer alone. Only molecules with a significant and dose-dependent LmPDI inhibiting activity are retained.
With the aim of determining whether the different PDI inhibitors described in the literature could inhibit the thio-disulfide oxido-reductase activity of LmPDI, the capacity of these inhibitors to block the enzymatic activity of LmPDI synthesized in E. coli then purified was studied in an in vitro test, at different-concentrations. The inhibitors were: • bacitracin; • zinc bacitracin; • p-chloromercuribenzoic acid (pCMBA); • tocinoic acid.
Twenty milligrams of RNase A (Amersham.-Pharmacia) was denatured in a buffer composed of 0.15 M dithiothreitol, 6M guanidine HCl and 0.1 M Tris-HCl, pH 8.6 for 18 hours at ambient temperature. The scrambled RNase was then purified on a Sephadex G25 column equilibrated in HCl 0.01 M and quantified by spectrophotometry at 275 nm.
In a glutathione-based reducing buffer, PDI catalyzes renaturing of scrambled RNase (Gilbert, 1998). Restoration of RNase activity was measured by spectrophotometry in the presence of cytidine 2′-3′-cyclic monophosphate (cCMP) as a substrate. 8 μM of scrambled RNase, alone or in the presence of 1.4 μM of bovine serum albumin (BSA) or 1.4 μM of rLmPDI was mixed in a buffer containing 4.5 mM of cCMP, 1 mM of reduced glutathione (GSH), 200 μM of oxidized glutathione (GSSG), 2 mM EDTA and 100 mM Tris-Cl, pH 8. The reaction was carried out at ambient temperature for 30 minutes. The hydrolysis of cCMP resulting from the renaturing of RNase was recorded by measuring the absorbance at 296 nm every 5 minutes for the half hour of the reaction.
The activity of the recombinant LmPDI (rLmPDI) was measured in the presence of different concentrations of bacitracin (BAC 0.01 mM-2 mM) and zinc bacitracin (BACZn, 0.01 mM-2 mM).

The subject of assay [3] is L. major GLC94 isolate promastigotes. The following applies: treatments used in man; general statement; cited from earlier work.
The subject of a further assay is GLC94 promastigotes. The assay is described as follows: In vitro growth kinetics of L. major promastigotes in the presence of zinc bacitracin. It counts as cell-based, Leishmania major. The following applies: FIG. 13. Here is the method: FIG. 13 illustrates the inhibition of the multiplication of GLC94 promastigotes by zinc bacitracin. The effect of zinc bacitracin (BACZn) on the multiplication of GLC94 promastogotes was determined in vitro. Different concentrations of inhibitor were tested to analyze their effect on the capacity of the parasites to multiply in vitro. The control (C) was constituted by parasites cultivated in a complete medium in the absence of inhibitors.
To this end, promastigotes from the GLC94 isolate were cultured on a medium based on coagulated rabbit serum for two days. […] Promastigotes cultured in complete medium in the absence of inhibitors were used as the control. Monitoring was by counting the parasites at 48, 72 and 96 hours.

As to `CC[C@H](C)[C@H](N)C1=N[C@H](C(=O)N[C@@H](CC(C)C)C(=O)N[C@H](CCC(=O)O)C(=O)N[C@H](C(=O)N[C@H]2CCCCNC(=O)[C@H](CC(N)=O)NC(=O)[C@@H](CC(=O)O)NC(=O)[C@H](Cc3cnc[nH]3)NC(=O)[C@@H](Cc3ccccc3)NC(=O)[C@H]([C@@H](C)CC)NC(=O)[C@@H](CCCN)NC2=O)[C@@H](C)CC)CS1` [bacitracin] ({Ileψ(thiazoline)Cys}-L[dE]IK[dOrn]I[dF]H[dD]N; lactam 4-C), the results for the “mice with lesion attenuation” value in assay [1] (pomade 5 mM) and in assay [1] (pomade 25 mM) were 2 out of 3 and 2 out of 4, respectively. The “growth of Leishmania in a liquid medium (summary statement)” value in assay [2] is on record as “inhibits the growth”. In addition, the “inhibition of rLmPDI activity” value with recombinant LmPDI (0.1 mM) stood at 50%; with recombinant LmPDI (0.5 mM), 70%; with recombinant LmPDI (2 mM), 100%. The “concentration at which LmPDI activity is completely inhibited” value with recombinant LmPDI (FIG. 10) is listed as 2 mM.

For `O=C(O)c1cc[c]([Hg][Cl])cc1` [pCMBA, p-chloromercuribenzoic acid], the “concentration that completely inhibited the growth of L. major in a liquid medium” value in assay [2] is recorded as 0.5 mM. For the same compound, the “concentration at which LmPDI activity is completely inhibited” value in the assay on recombinant LmPDI (FIG. 10) came to 0.01 mM.

On to `CNC[C@H](O)[C@@H](O)[C@H](O)[C@H](O)CO.[O]=[Sb](=[O])[OH]` [glucantime], for which the “effect on the disease induced in the BALB/c mouse” value in assay [3] is recorded as “little effect”.

As for `O=S(=O)(O)c1cc[c]([Hg][Cl])cc1` [pCMBS, p-chloromercuribenzene sulfonic acid], in assay [2], the “growth of Leishmania in a liquid medium (summary statement)” value is on record as “inhibits the growth”.

For the compound “tocinoic acid (CYIQNC; not fully specified (bridges); cysteine pairing not given here; UniProt P01178 20-25, looked up, fragment)”, the “effect on the activity of LmPDI” value in the assay with recombinant LmPDI (FIG. 10, at the concentrations employed (0.01 to 2 mM)) was “did not appear to have a very great effect”.

`NC[C@@H]1O[C@H](O[C@H]2[C@@H](O)[C@H](O[C@@H]3[C@@H](O)[C@H](N)C[C@H](N)[C@H]3O[C@H]3O[C@H](CO)[C@@H](O)[C@H](O)[C@H]3N)O[C@@H]2CO)[C@H](N)[C@@H](O)[C@@H]1O` [paramomycin]: the “effect on the disease induced in the BALB/c mouse” value in assay [3] is “little effect”.

In the case of zinc bacitracin, the “progress of the disease (lesion size)” value in assay [1] (pomade in Vaseline applied locally at the injection site, from 48 h after infection, preliminary, FIG. 14) is on record as “attenuates the progress of the disease”. Moreover, the “concentration that completely inhibited the growth of L. major in a liquid medium” value in assay [2] amounted to 2 mM. The “inhibition of rLmPDI activity” value in the assay on recombinant LmPDI (0.1 mM) is 50%; in the assay with recombinant LmPDI (0.5 mM), 70%; with recombinant LmPDI (2 mM) it was 100%. Further, the “concentration at which LmPDI activity is completely inhibited” value in the assay with recombinant LmPDI (FIG. 10) is on record as 2 mM. Besides, the growth of parasites entry with GLC94 promastigotes (1 mM) is recorded as “no effect”; with GLC94 promastigotes (1.5 mM), “partially inhibits”; with GLC94 promastigotes (2 mM), “complete inhibition”; with GLC94 promastigotes (5 mM), “complete inhibition”.

For the compound `O=C(O)c1cc(SSc2ccc([N+](=O)[O-])c(C(=O)O)c2)ccc1[N+](=O)[O-]` [DTNB, 5,5′-dithiobis(2-nitrobenzoic acid)], the “effect on the growth of Leishmanias in a liquid medium” value in assay [2] (in the concentrations used (0 to 5 mM), FIG. 11) is on record as “did not appear to have a very large effect”.
